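Cultured in 96-well plates, cells were exposed to test compound for 48 hours across five concentrations. The concentration for 50% growth inhibition is given as GI50. At the TGI there is no net growth.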
System: SK-MEL-5 melanoma
Assay: NCI-60 cell line screen, 48 h

First: CCOC(CN(C)C(=S)Nc1cccc2ccccc12)OCC
Second: COc1ccc(/C=C(/c2ccccc2)[N+](=O)[O-])cc1
The TGI of the first is higher: over 10 µM for the first, 3.29 µM for the second.

First: CCCCN(CCCC)C(=C(C(Cl)=C(Cl)Cl)[N+](=O)[O-])N(CCCC)CCCC
Second: COc1cc(CNc2nc3cc(C(F)(F)F)ccc3nc2-c2ccccc2)cc(OC)c1OC
The TGI of the first is higher: over 100 µM for the first, 73.3 µM for the second.

Work on COc1ccc(/C=C(/c2ccccc2)[N+](=O)[O-])cc1 yielded a GI50 of 1.82 µM.

System: CCRF-CEM leukemia
Assay: NCI-60 cell line screen, 48 h

In order of falling GI50:
1. Nc1ccccc1SC1CC(=O)N(c2ccc(Cl)c(Cl)c2)C1=O (centres undefined)  40.6 µM
2. COc1ccc(/C=C(/c2ccccc2)[N+](=O)[O-])cc1  0.415 µM

Going from Nc1ccccc1SC1CC(=O)N(c2ccc(Cl)c(Cl)c2)C1=O (centres undefined) to COc1ccc(/C=C(/c2ccccc2)[N+](=O)[O-])cc1, the TGI falls from over 100 µM to 3.32 µM.

CCOC(CN(C)C(=S)Nc1cccc2ccccc12)OCC and COc1cc(CNc2nc3cc(C(F)(F)F)ccc3nc2-c2ccccc2)cc(OC)c1OC cannot be ordered by TGI: over 10 µM for the first, over 100 µM for the second.

System: UACC-257 melanoma
Assay: NCI-60 cell line screen, 48 h

In order of rising GI50:
1. COc1ccc(/C=C(/c2ccccc2)[N+](=O)[O-])cc1  1.6 µM
2. Nc1ccccc1SC1CC(=O)N(c2ccc(Cl)c(Cl)c2)C1=O (centres undefined)  31.8 µM

First: Nc1ccccc1SC1CC(=O)N(c2ccc(Cl)c(Cl)c2)C1=O (centres undefined)
Second: COc1ccc(/C=C(/c2ccccc2)[N+](=O)[O-])cc1
The TGI of the first is higher: over 100 µM for the first, 3.4 µM for the second.

CCOC(CN(C)C(=S)Nc1cccc2ccccc12)OCC and COc1cc(CNc2nc3cc(C(F)(F)F)ccc3nc2-c2ccccc2)cc(OC)c1OC cannot be ordered by TGI: over 10 µM for the first, over 100 µM for the second.

CCCCN(CCCC)C(=C(C(Cl)=C(Cl)Cl)[N+](=O)[O-])N(CCCC)CCCC gave a TGI of over 100 µM.

System: NCI-H23 lung
Assay: NCI-60 cell line screen, 48 h

In order of falling GI50:
1. Nc1ccccc1SC1CC(=O)N(c2ccc(Cl)c(Cl)c2)C1=O (centres undefined)  23.8 µM
2. COc1ccc(/C=C(/c2ccccc2)[N+](=O)[O-])cc1  1.74 µM

Going from Nc1ccccc1SC1CC(=O)N(c2ccc(Cl)c(Cl)c2)C1=O (centres undefined) to COc1ccc(/C=C(/c2ccccc2)[N+](=O)[O-])cc1, the TGI falls from over 100 µM to 3.63 µM.

CCOC(CN(C)C(=S)Nc1cccc2ccccc12)OCC and COc1cc(CNc2nc3cc(C(F)(F)F)ccc3nc2-c2ccccc2)cc(OC)c1OC cannot be ordered by TGI: over 10 µM for the first, over 100 µM for the second.

Compound CCCCN(CCCC)C(=C(C(Cl)=C(Cl)Cl)[N+](=O)[O-])N(CCCC)CCCC has a TGI of over 100 µM.

System: RXF 393 renal
Assay: NCI-60 cell line screen, 48 h

In order of falling GI50:
1. Nc1ccccc1SC1CC(=O)N(c2ccc(Cl)c(Cl)c2)C1=O (centres undefined)  14.2 µM
2. COc1ccc(/C=C(/c2ccccc2)[N+](=O)[O-])cc1  1.35 µM

First: Nc1ccccc1SC1CC(=O)N(c2ccc(Cl)c(Cl)c2)C1=O (centres undefined)
Second: COc1ccc(/C=C(/c2ccccc2)[N+](=O)[O-])cc1
The TGI of the first is 15-fold higher: 42.8 µM for the first, 2.78 µM for the second.

CCOC(CN(C)C(=S)Nc1cccc2ccccc12)OCC and COc1cc(CNc2nc3cc(C(F)(F)F)ccc3nc2-c2ccccc2)cc(OC)c1OC cannot be ordered by TGI: over 10 µM for the first, 51.7 µM for the second.

System: MDA-N
Assay: NCI-60 cell line screen, 48 h

CCOC(CN(C)C(=S)Nc1cccc2ccccc12)OCC and COc1cc(CNc2nc3cc(C(F)(F)F)ccc3nc2-c2ccccc2)cc(OC)c1OC cannot be ordered by TGI: over 10 µM for the first, over 100 µM for the second.

CCCCN(CCCC)C(=C(C(Cl)=C(Cl)Cl)[N+](=O)[O-])N(CCCC)CCCC was tested, and the TGI was over 100 µM.

System: DU-145 prostate
Assay: NCI-60 cell line screen, 48 h

In order of falling GI50:
1. Nc1ccccc1SC1CC(=O)N(c2ccc(Cl)c(Cl)c2)C1=O (centres undefined)  27.5 µM
2. COc1ccc(/C=C(/c2ccccc2)[N+](=O)[O-])cc1  1.65 µM

Compared with Nc1ccccc1SC1CC(=O)N(c2ccc(Cl)c(Cl)c2)C1=O (centres undefined), COc1ccc(/C=C(/c2ccccc2)[N+](=O)[O-])cc1 is lower in TGI: over 100 µM for the first, 3.05 µM for the second.

CCOC(CN(C)C(=S)Nc1cccc2ccccc12)OCC and COc1cc(CNc2nc3cc(C(F)(F)F)ccc3nc2-c2ccccc2)cc(OC)c1OC cannot be ordered by TGI: over 10 µM for the first, over 100 µM for the second.

Compound CCCCN(CCCC)C(=C(C(Cl)=C(Cl)Cl)[N+](=O)[O-])N(CCCC)CCCC has a TGI of over 100 µM.

System: MCF7 breast
Assay: NCI-60 cell line screen, 48 h

In order of falling GI50:
1. Nc1ccccc1SC1CC(=O)N(c2ccc(Cl)c(Cl)c2)C1=O (centres undefined)  27.1 µM
2. COc1ccc(/C=C(/c2ccccc2)[N+](=O)[O-])cc1  0.567 µM

First: Nc1ccccc1SC1CC(=O)N(c2ccc(Cl)c(Cl)c2)C1=O (centres undefined)
Second: COc1ccc(/C=C(/c2ccccc2)[N+](=O)[O-])cc1
The TGI of the first is higher: over 100 µM for the first, 2.68 µM for the second.

CCOC(CN(C)C(=S)Nc1cccc2ccccc12)OCC and COc1cc(CNc2nc3cc(C(F)(F)F)ccc3nc2-c2ccccc2)cc(OC)c1OC cannot be ordered by TGI: over 10 µM for the first, 22.4 µM for the second.

System: HL-60(TB) leukemia
Assay: NCI-60 cell line screen, 48 h

Nc1ccccc1SC1CC(=O)N(c2ccc(Cl)c(Cl)c2)C1=O (centres undefined) showed a GI50 of over 100 µM.

Nc1ccccc1SC1CC(=O)N(c2ccc(Cl)c(Cl)c2)C1=O (centres undefined) gave a TGI of over 100 µM.

Source: PubChem BioAssay (NCI)
